According to patent EP4603105A1, “PHARMACEUTICAL COMPOSITION CONTAINING CYCLIC COMPOUND HAVING SELECTIVE KRAS INHIBITORY EFFECT AGAINST HRAS AND NRAS” (CHUGAI SEIYAKU KABUSHIKI KAISHA, priority 2022, dated 2024):
Like-named read-outs stand apart in the source and are kept apart here. *1 amine or outer side, *2 acyl side, *3 side chain or, on linkers, in order; H or OH if unused. Where a SMILES comes first, the peptide text is derived from it. Bridges are numbered along the chain shown (N, C = ends). [ ]: non-standard residue; d: D form. The star is where a group is joined. hPhe(3-Cl-4-CF3) = N[C@@H](CCc1ccc(C(F)(F)F)c(Cl)c1)C(=O)O; NPrPhe(4-CF3) = CCCN[C@@H](Cc1ccc(C(F)(F)F)cc1)C(=O)O; X30 = CCN([C@H](C(=O)[*:2])C1CCCC1)[*:1]; NMeGly(cPent) = CN[C@H](C(=O)O)C1CCCC1; Pro(4,4-F2) = O=C(O)[C@@H]1CC(F)(F)CN1; NMeD = CN[C@@H](CC(=O)O)C(=O)O; NMeL = CN[C@@H](CC(C)C)C(=O)O; Pip = O=C(O)[C@@H]1CCCCN1; Morpholide = C1CN(*)CCO1; NMeA = CN[C@@H](C)C(=O)O; Ac5c = NC1(C(=O)O)CCCC1; Aze = O=C(O)[C@@H]1CCN1; Ac4c = NC1(C(=O)O)CCC1; Sar = CNCC(=O)O

Experiments:
HRAS wild-type protein = HRAS wild-type protein (Homo sapiens, UniProt P01112); experiment: Binding to HRAS by surface plasmon resonance (SPR), KD and KD ratio to KRAS
Procedure, shortened: (§1)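 Biotinylated GDP-bound RAS was captured at about 100–300 RU. Running buffer: HBS pH 7.4, 10 mM MgCl2, 10 µM GDP, 1 mM DTT, 0.01% Tween 20, 4% DMSO.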

[1] = system: human lung cancer strain NCI-H441; type: cell-based
Procedure, shortened: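 Step one: dispense the test compound in serial DMSO dilutions. Step three: add the reagent and measure […].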

[2] = target: GDP-bound NRAS wild-type protein (Homo sapiens, UniProt P01111); experiment: Binding to NRAS by surface plasmon resonance (SPR), KD and KD ratio to KRAS
Procedure, shortened: as §1

[3] = ratio of KD for HRAS wild-type protein to KD for KRAS
[4] = NCI-H441 cells, 4 days, CellTiter-Glo, read-out: NCl-H441 IC50
[5] = ratio of KD for GDP-bound NRAS wild-type protein to KD for KRAS
[6] = ratio of KD value for HRAS wild-type protein to KD value for KRAS (SPR)
[7] = ratio of KD value for GDP-bound NRAS wild-type protein to KD value for KRAS (SPR)
[8] = ratio of the KD value with respect to HRAS wild-type protein to the KD value with respect to KRAS
[9] = ratio of the KD value with respect to GDP-bound NRAS wild-type protein to the KD value with respect to KRAS

Sequence of GDP-bound NRAS wild-type protein (P01111 whole entry): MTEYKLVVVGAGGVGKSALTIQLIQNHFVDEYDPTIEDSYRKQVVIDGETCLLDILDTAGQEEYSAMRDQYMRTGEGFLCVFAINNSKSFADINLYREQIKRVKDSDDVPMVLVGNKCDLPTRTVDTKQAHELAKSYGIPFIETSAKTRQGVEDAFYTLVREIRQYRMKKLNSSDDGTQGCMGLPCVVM
Sequence of HRAS wild-type protein (P01112 whole entry): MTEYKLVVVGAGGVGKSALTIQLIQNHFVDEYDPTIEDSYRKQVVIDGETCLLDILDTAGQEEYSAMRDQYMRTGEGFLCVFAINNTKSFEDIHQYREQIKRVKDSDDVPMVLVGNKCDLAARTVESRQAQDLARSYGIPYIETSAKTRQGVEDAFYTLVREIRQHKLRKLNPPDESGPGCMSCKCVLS

| Structure (SMILES) | IC50 [1] | HRAS /KRAS (HRAS wild-type protein; [3]) | NRAS /KRAS [2, 5] | HRAS /KRAS (HRAS wild-type protein; [8]) | NRAS /KRAS [2, 9] | also measured |
| --- | --- | --- | --- | --- | --- | --- |
| CCC[C@H]1C(=O)N[C@@H]([C@@H](C)CC)C(=O)N(C)CC(=O)N(C)[C@H]2C/C=C\CCN(C2=O)[C@@H](Cc2ccc(C(F)(F)F)cc2)C(=O)N(C)CC(=O)N[C@@H](CCc2ccc(C3CC3)c(C)c2)C(=O)N2C[C@H](OCC)C[C@H]2C(=O)NC2(CC(C)(C)C2)C(=O)N(C)[C@@H](C2CCCC2)C(=O)N(C)[C@H](C(=O)N(C)C)CC(=O)N1C [PP2855] |  | A (a compound having 10 or more and less than 20 is denoted as A) | A (a compound having 10 or more and less than 20 is denoted as A) |  |  | IC50 [1, 4]: 0.0379 µM |
| CCCN1C(=O)CN(C)C(=O)CN(C)C(=O)[C@H]([C@@H](C)CC)NC(=O)[C@H](CC(C)C)N(C)C(=O)C[C@@H](C(=O)N2CCOCC2)N(C)C(=O)[C@H](C2CCCC2)N(C)C(=O)C2(CCCC2)NC(=O)[C@@H]2CCCCN2C(=O)[C@H](CCc2ccc(C(F)(F)F)c(Cl)c2)NC(=O)CN(C)C(=O)[C@@H]1Cc1ccc(C(F)(F)F)cc1 [PP0263] ([NMeL]I[Sar][Sar][NPrPhe(4-CF3)][Sar][hPhe(3-Cl-4-CF3)][Pip][Ac5c][NMeGly(cPent)][NMeD]-Morpholide; lactam N-11) | 0.0192 µM | C (A compound having a KD ratio of 0.1 or more and less than 3 is denoted as C) | B (a compound having 3 or more and less than 10 is denoted as B) |  |  |  |
| CCC[C@H]1C(=O)N[C@@H]([C@@H](C)CC)C(=O)N(C)CC(=O)N(C)[C@H]2C/C=C\CCN(C2=O)[C@@H](Cc2ccc(C(F)(F)F)cc2)C(=O)N(C)CC(=O)N[C@@H](CCc2cc(F)c(C(F)(F)F)c(F)c2)C(=O)N2C[C@H](OCC)C[C@H]2C(=O)NC2(CCC2)C(=O)N(C)[C@@H](C2CCCC2)C(=O)N(C)[C@H](C(=O)N2CC3CCC(C2)O3)CC(=O)N1C [PP1315] | 0.0345 µM |  |  |  |  | HRAS /KRAS (HRAS wild-type protein; ratio of KD with respect to HRAS wild-type protein to KD with respect to KRAS): A (a compound having 10 or more and less than 20 is denoted as A); NRAS /KRAS ([2]; ratio of KD with respect to GDP-bound NRAS wild-type protein to KD with respect to KRAS): AA (a compound having 20 or more is denoted as AA) |
| CCC[C@H]1C(=O)N[C@@H]([C@@H](C)CC)C(=O)N(C)CC(=O)N(C)[C@H]2C/C=C\CCN(C2=O)[C@@H](Cc2ccc(C(F)(F)F)cc2)C(=O)N(C)CC(=O)N[C@@H](CCc2cc(C)c(C(F)F)c(C)c2)C(=O)N2C[C@H](OCC)C[C@H]2C(=O)NC2(CC(C)(C)C2)C(=O)N(C)[C@@H](C2CCCC2)C(=O)N(C)[C@H](C(=O)N(C)C)CC(=O)N1C [PP2857] |  | A (a compound having 10 or more and less than 20 is denoted as A) | A (a compound having 10 or more and less than 20 is denoted as A) |  |  | IC50 [1, 4]: 0.0616 µM |
| CC[C@H](C)[C@@H]1NC(=O)[C@H](CC(C)C)N(C)C(=O)C[C@@H](C(=O)N2CCOCC2)N(C)C(=O)[C@H](C2CCCC2)N(C)C(=O)C2(CCCC2)NC(=O)[C@@H]2CCCN2C(=O)[C@H](CCc2ccc(C(F)(F)F)c(Cl)c2)NC(=O)CN(C)C(=O)[C@H](Cc2ccc(Cl)cc2)N2CCCCC[C@@H](C2=O)N(C)C(=O)CN(C)C1=O [PP0613] | 0.0424 µM |  |  | B (a compound having 3 or more and less than 10 is denoted as B) | B (a compound having 3 or more and less than 10 is denoted as B) |  |
| CC[C@H](C)[C@@H]1NC(=O)[C@H](CC(C)C)N(C)C(=O)C[C@@H](C(=O)N2CCOCC2)N(C)C(=O)[C@H](C2CCCC2)N(CC)C(=O)C2(CCCC2)NC(=O)[C@@H]2CCCN2C(=O)[C@H](CCc2cc(F)c(C(F)(F)F)c(F)c2)NC(=O)CN(C)C(=O)[C@H](Cc2ccc(C(F)(F)F)cc2)N2CCCC[C@@H](C2=O)N(C)C(=O)CN(C)C1=O [PP0538] | 0.078 µM |  |  | B (a compound having 3 or more and less than 10 is denoted as B) | B (a compound having 3 or more and less than 10 is denoted as B) |  |
| CCCN1C(=O)[C@@H]2CCN2C(=O)CN(C)C(=O)[C@H]([C@@H](C)CC)NC(=O)[C@H](CC(C)C)N(C)C(=O)C[C@@H](C(=O)N2CCOCC2)N(C)C(=O)[C@H](C2CCCC2)N(C)C(=O)C2(CCC2)NC(=O)[C@@H]2CC(F)(F)CN2C(=O)[C@H](CCc2ccc(C(F)(F)F)c(Cl)c2)NC(=O)CN(C)C(=O)[C@@H]1Cc1ccc(C(F)(F)F)cc1 [PP0409] ([NMeL]I[Sar][Aze][NPrPhe(4-CF3)][Sar][hPhe(3-Cl-4-CF3)][Pro(4,4-F2)][Ac4c][NMeGly(cPent)][NMeD]-Morpholide; lactam N-11) | 0.0044 µM |  |  | C (A compound having a KD ratio of 0.1 or more and less than 3 is denoted as C) | C (A compound having a KD ratio of 0.1 or more and less than 3 is denoted as C) |  |
| CC[C@H](C)[C@@H]1NC(=O)[C@H](CC(C)C)N(C)C(=O)C[C@@H](C(=O)N2CCOCC2)N(C)C(=O)[C@H](C2CCCC2)N(C)C(=O)C2(CCCC2)NC(=O)[C@@H]2CCCN2C(=O)[C@H](CCc2ccc(C(F)(F)F)c(Cl)c2)NC(=O)CN(C)C(=O)[C@H](C2CCCC2)N(CC)C(=O)[C@@H]2CCN2C(=O)[C@H](C)N(C)C1=O [PP0003] ([NMeL]I[NMeA][Aze][X30][Sar][hPhe(3-Cl-4-CF3)]P[Ac5c][NMeGly(cPent)][NMeD]-Morpholide; lactam N-11) | 0.0414 µM | C (A compound having a KD ratio of 0.1 or more and less than 3 is denoted as C) | C (A compound having a KD ratio of 0.1 or more and less than 3 is denoted as C) |  |  |  |

Continued, in another order:

| IC50 [1] | Structure (SMILES) | HRAS /KRAS (HRAS wild-type protein; [3]) | NRAS /KRAS [2, 5] | HRAS /KRAS (HRAS wild-type protein; [8]) | NRAS /KRAS [2, 9] | also measured |
| --- | --- | --- | --- | --- | --- | --- |
| 0.0083 µM | CC[C@H](C)[C@@H]1NC(=O)[C@H](CC2CC2)N(C)C(=O)C[C@@H](C(=O)N(C)C)N(C)C(=O)[C@H](C2CCCC2)N(C)C(=O)C2(CCCC2)NC(=O)[C@@H]2CC(F)(F)CN2C(=O)[C@H](CCc2cc(F)c(C(F)(F)F)c(F)c2)NC(=O)CN(C)C(=O)[C@H](Cc2ccc(C(F)(F)F)cc2)N2CC/C=C\C[C@@H](C2=O)N(C)C(=O)CN(C)C1=O [PP1513] |  |  |  |  | HRAS /KRAS (HRAS wild-type protein; [6]): A (a compound having 10 or more and less than 20 is denoted as A); NRAS /KRAS [2, 7]: A (a compound having 10 or more and less than 20 is denoted as A) |
| 0.0071 µM | CCO[C@@H]1C[C@H]2C(=O)NC3(CCC3)C(=O)N(C)[C@@H](C3CCCC3)C(=O)N(C)[C@H](C(=O)N3CCOCC3)CC(=O)N(C)[C@@H](CC3CC3)C(=O)N[C@@H]([C@@H](C)CC)C(=O)N(C)CC(=O)N(C)[C@H]3CCCCN(C3=O)[C@@H](Cc3ccc(C(F)(F)F)cc3)C(=O)N(C)CC(=O)N[C@@H](CCc3cc(F)c(C(F)(F)F)c(F)c3)C(=O)N2C1 [PP0712] |  |  | C (A compound having a KD ratio of 0.1 or more and less than 3 is denoted as C) | C (A compound having a KD ratio of 0.1 or more and less than 3 is denoted as C) |  |
| 0.0053 µM | CCCOC[C@H]1C(=O)N[C@@H]([C@@H](C)CC)C(=O)N(C)CC(=O)N(C)[C@H]2C/C=C\CCN(C2=O)[C@@H](Cc2ccc(C(F)(F)F)cc2)C(=O)N(C)CC(=O)N[C@@H](CCc2cc(F)c(C(F)(F)F)c(F)c2)C(=O)N2C[C@H](OCC)C[C@H]2C(=O)NC2(CCC2)C(=O)N(C)[C@@H](C2CCCC2)C(=O)N(C)[C@H](C(=O)N(C)CCC)CC(=O)N1C [PP1668] |  |  |  |  | HRAS /KRAS (HRAS wild-type protein; [6]): A (a compound having 10 or more and less than 20 is denoted as A); NRAS /KRAS [2, 7]: A (a compound having 10 or more and less than 20 is denoted as A) |
| 0.0008 µM | CCCO[C@@H]1C[C@H]2C(=O)NC3(CC(C)(C)C3)C(=O)N(C)[C@@H](C3CCCC3)C(=O)N(C)[C@H](C(=O)N(C)C)CC(=O)N(C)[C@H]3CCCCc4ccc(cc4)C[C@@H](C(=O)N(C)CC(=O)N[C@@H](CCc4ccc(C(F)(F)F)c(OC)c4)C(=O)N2C1)N1CC/C=C\C[C@@H](C1=O)N(C)C(=O)CN(C)C(=O)[C@H]([C@@H](C)CC)NC3=O [PP3077] | B (a compound having 3 or more and less than 10 is denoted as B) | A (a compound having 10 or more and less than 20 is denoted as A) |  |  |  |
